Laboratory results from ChEMBL document CHEMBL1201862, “PubChem BioAssay data set” (2004).
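Five compound concentrations were applied to cells in 96-well plates for 48 hours; endpoints were derived by simple linear interpolation of the resulting dose-response curve. GI50 is the concentration that inhibits growth by half.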 Calls of active or inactive are those of the source. Cut-off read from the data, not from the text of the source: active = GI50 up to about 1.1 µM and inactive = higher.

What was measured:
Assay in all cases: growth of human tumour cells (NCI), 48 h
Malme-3M = test system: Malme-3M
HOP-92 = test system: HOP-92
SK-OV-3 = test system: SK-OV-3
NCI-H460 = test system: NCI-H460
SK-MEL-5 = test system: SK-MEL-5
HL-60 = test system: HL-60
SNB-19 = test system: SNB-19
RPMI-8226 = test system: RPMI-8226
MOLT-4 = test system: MOLT-4
786-0 = test system: 786-0
SNB-75 = test system: SNB-75
SR = test system: SR
NCI-H23 = test system: NCI-H23
NCI-H522 = test system: NCI-H522
LOX IMVI = test system: LOX IMVI
ACHN = test system: ACHN
CAKI-1 = test system: CAKI-1

Row | SMILES | GI50 (Malme-3M) | GI50 (HOP-92) | GI50 (SK-OV-3) | GI50 (NCI-H460) | GI50 (SK-MEL-5) | GI50 (HL-60) | GI50 (SNB-19) | GI50 (RPMI-8226) | GI50 (MOLT-4) | GI50 (786-0) | GI50 (SNB-75) | GI50 (SR) | GI50 (NCI-H23) | GI50 (NCI-H522) | GI50 (LOX IMVI) | GI50 (ACHN) | GI50 (CAKI-1)
1 | COc1ccc(OC(C)=O)c2c1CCC=CC2=O | 20.1 µM (inactive) | 2.83 µM (inactive) | 17.5 µM (inactive) | 19.1 µM (inactive) | 15.6 µM (inactive) | 2.47 µM (inactive) | 17.6 µM (inactive) | 1.01 µM (active) | 12.2 µM (inactive) | 17.9 µM (inactive) | 15.8 µM (inactive) | 15.1 µM (inactive) | 18.5 µM (inactive) | 1.86 µM (inactive) | 4.7 µM (inactive) | 17.9 µM (inactive) | –
2 | Nc1nc(SCc2ccc([N+](=O)[O-])cc2)nc2c1ncn2C1OC(COP(=O)(O)O)C(O)C1O (stereo unspecified) | > 100 µM (inactive) | > 100 µM (inactive) | > 100 µM (inactive) | > 100 µM (inactive) | > 100 µM (inactive) | > 100 µM (inactive) | > 100 µM (inactive) | – | > 100 µM (inactive) | – | > 100 µM (inactive) | > 100 µM (inactive) | > 100 µM (inactive) | > 100 µM (inactive) | > 100 µM (inactive) | > 100 µM (inactive) | –
3 | COc1ccc(/C=c2\sc3nnc(CCC(=O)Nc4cccc(C(F)(F)F)c4)n3c2=O)cc1 | > 100 µM (inactive) | > 100 µM (inactive) | > 100 µM (inactive) | > 100 µM (inactive) | > 100 µM (inactive) | > 47.9 µM (inactive) | > 100 µM (inactive) | 38.4 µM (inactive) | 4.56 µM (inactive) | > 71.8 µM (inactive) | > 75.7 µM (inactive) | 42.6 µM (inactive) | > 100 µM (inactive) | – | > 100 µM (inactive) | > 100 µM (inactive) | > 79.8 µM (inactive)
4 | O=C1C=CC2(C=C1)C[C@H](NC(=O)C(F)(F)F)C(=O)O2 | 19.8 µM (inactive) | – | > 100 µM (inactive) | > 100 µM (inactive) | 76.2 µM (inactive) | 14.2 µM (inactive) | > 100 µM (inactive) | 31.3 µM (inactive) | 20.4 µM (inactive) | > 100 µM (inactive) | 69 µM (inactive) | 37 µM (inactive) | 26.7 µM (inactive) | 17.3 µM (inactive) | 22.3 µM (inactive) | > 100 µM (inactive) | 30.5 µM (inactive)
5 | Cc1ccc([Se][Se]c2ccc(C)cc2)cc1 | 32.4 µM (inactive) | 6.87 µM (inactive) | > 100 µM (inactive) | 37.8 µM (inactive) | 16 µM (inactive) | 4.02 µM (inactive) | 33 µM (inactive) | 5.02 µM (inactive) | 15.1 µM (inactive) | 18.6 µM (inactive) | 7.91 µM (inactive) | – | 23.8 µM (inactive) | 3.32 µM (inactive) | 5.42 µM (inactive) | 25.3 µM (inactive) | 47.4 µM (inactive)
6 | CCOc1ccccc1NC(=O)/C=C1\NC(=O)CS1 | 50.5 µM (inactive) | > 100 µM (inactive) | > 100 µM (inactive) | > 100 µM (inactive) | > 100 µM (inactive) | > 100 µM (inactive) | > 100 µM (inactive) | 62.5 µM (inactive) | > 100 µM (inactive) | > 100 µM (inactive) | 26.9 µM (inactive) | – | > 100 µM (inactive) | 86.1 µM (inactive) | > 100 µM (inactive) | – | > 100 µM (inactive)
7 | C[C@]12Cc3cn[nH]c3C(=O)C1CC[C@@H]1C2CC[C@@]2(C)C1CC[C@]2(C)O (stereo partly specified) | > 100 µM (inactive) | > 100 µM (inactive) | > 100 µM (inactive) | > 100 µM (inactive) | > 100 µM (inactive) | > 100 µM (inactive) | > 100 µM (inactive) | > 100 µM (inactive) | > 100 µM (inactive) | 89.5 µM (inactive) | 39.7 µM (inactive) | – | > 100 µM (inactive) | > 100 µM (inactive) | > 100 µM (inactive) | > 100 µM (inactive) | > 100 µM (inactive)
8 | O=c1[nH]c(Br)nc2c(N3CCCCC3)c[nH]c12 | > 100 µM (inactive) | > 100 µM (inactive) | > 100 µM (inactive) | > 100 µM (inactive) | > 100 µM (inactive) | > 100 µM (inactive) | > 100 µM (inactive) | > 100 µM (inactive) | 29.5 µM (inactive) | > 100 µM (inactive) | > 100 µM (inactive) | – | > 100 µM (inactive) | 28.3 µM (inactive) | > 100 µM (inactive) | > 100 µM (inactive) | > 100 µM (inactive)
9 | Cc1ccccc1N(CC(=O)O)S(=O)(=O)c1ccccc1 | > 100 µM (inactive) | > 100 µM (inactive) | > 100 µM (inactive) | > 100 µM (inactive) | > 100 µM (inactive) | > 100 µM (inactive) | > 100 µM (inactive) | > 100 µM (inactive) | > 100 µM (inactive) | > 100 µM (inactive) | > 100 µM (inactive) | – | > 100 µM (inactive) | > 100 µM (inactive) | > 100 µM (inactive) | > 100 µM (inactive) | > 100 µM (inactive)
